Experimental data taken from patent US11040034B2 (priority 2016, dated 2021).
Read-outs that look alike come from different tables or passages of the source.

Tests used:
[1] = cynomolgus monkey liver microsomes
[2] = rat liver microsomes

- metabolic stability in comparison to comparison example [1]: greater metabolic stability
- metabolic stability in comparison to comparison example [2]: greater metabolic stability
SMILES: CCS(=O)(=O)NCc1cc(-c2nc3cc(F)c(F)cc3n2C2CC2)cnn1 [Example 52, N-((5-(1-Cyclopropyl-5,6-difluoro-1H-benzo[d]imidazol-2-yl)pyridazin-3-yl)methyl)ethanesulfonamide]
